# According to patent US5017557A, “Treatment of infertility with somatotrophin releasing factor” (Industria Farmaceutica Serono S.p.A., priority 1987, dated 1991):
# “Also recorded” adds a separate entry of the source. No end group written: not given here.
# Tests used:
# Sertoli cells = test: GRF binding to isolated Sertoli cells; set-up: species or system rat
# Description: Sertoli cells were isolated from the testicles of 14 day old rats, according to the techniques already decribed (A. Fabbri, et al.--Opiate receptors are present in the rat testis: Identification and localization on Sertoli cells. Endocrinology 117: 2544-2546, 1985). Briefly, the procedure consisted in the separation of the tubular compartment from the Leydig cells by means of enzymatic dispersion with collagenase and subsequent treatment of the tubules with trypsin and collagenase. The separated cells were applied to 48 well Costar plates at the concentration of approximately 100,000 cells per well. The cells were allowed to adhere to the bottom of the wells for 24 hours in a metabolic incubator at 34° C., in 95% O2 /5% CO2. The cells were then washed and incubated in TC 199 10 mM TRIS medium in the presence of iodine labelled GRF-44 at the concentration of 10^-11 M for 60 minutes at 4° C. in the presence or absence of 10^-6 M cold (unlabelled) human GRF-44. Then the cells were washed 3 times with PBS+0.5% BSA at 4° C.; the radio-activity bound to the cells was then solubilized with 0.1N NaOH and read in a gammacounter.
# [1] = system: serum levels of HGH, Sm-C, prolactin, LH, FSH; conditions: intravenous administration, normal subjects during the menstrual cycle; cited from earlier work
# [2] = system: follicle in maturative growth; test: echographic monitoring of follicle-genesis (volume/diameter of the follicle in maturative growth) in women; format: in vivo, human (women)
# Procedure: In the clinical trials reported below, GRF-29 was used in the form of lyophilized ampoules containing 100 or 150 micrograms (mcg) of GRF and 10 milligrams (mg) of mannitol as excipient. The lyophilized substance, dissolved in 2 ml of physiologic saline, was administered by the intravenous route.
# In a clinical study carried out in conformity with the present invention women, both with normal follicle-genesis (as control) and follicle-genesisdeficiency were treated.
# The study consisted in echographic and hormonal monitoring of follicle-genesis during which the volume of the follicle in maturative growth and the plasma levels of 17-beta estradiol and 17-alpha OH progesterone were recorded.
# In the controls with normal follicle-genesis, 2 monitorings of the follicle-genesis were carried out in accordance with the above mentioned procedures: the first verified the basal situation and the second was under administration of GRF-29 at the dosage of 100 or 150 mcg/day i.v. from the 1st to the 7th day of the cycle.
# In patients with follicle-genesis deficiency, monitorings of the follicle-genesis were carried out: without any medicinal administration (as control); under administration of GRF-29 at the dosage of 100 or 150 mcg/day i.v. from the 1st to the 7th day of the cycle; under administration of FSH (METRODIN® at the dosage of 75 or 150 I.U./day i.m. for 7 days; under the combined administration of FSH+GRF at the above dosage.
# spermatozoa = test: treatment of male infertility: seminal parameters; format: in vivo, human (patients); conditions: oligospermia or azoospermia; 5 mcg/kg s.c. 3 times a week for three months; controls at 45 days and 3 months
# Procedure: Patients suffering spermatogenesis deficiences of various entity with oligospermia or azoospermia, selected according to the criteria of the protocol, were treated for a period of three months with GRF-29 at the dosage of 5 mcg/kg s.c. 3 times a week.
# The first control was carried out after 45 days from commencement of therapy, and the second control after 3 months.
# [3] = system: anti-GRF obtained in the rabbit (Amersham) against human GRF-44; conditions: rabbit anti-serum against human GRF-44 (Amersham); cited from earlier work
Substance,"specific binding of GRF to Sertoli cells (Sertoli cells; iodine labelled GRF-44 10^-11 M, 60 minutes at 4° C., with or without 10^-6 M cold human GRF-44)",specific binding of GRF to Sertoli cells (Sertoli cells; recalculated per mg of protein),effect on serum hormone levels [1],"observation of the cycle (follicular activation, dominance, ovulation, menstrual flow) ([2]; Case 1, normal follicle-genesis, GRF-29 100 mcg/day i.v.)","observation of the cycle (follicular activation, dominance, ovulation, menstrual flow) ([2]; Case 3, patient, GRF-29 150 mcg/day i.v.)","observation of the cycle (follicular activation, dominance, ovulation, menstrual flow) ([2]; Case 4, patient, GRF-29 100 mcg/day i.v.)","observation of the cycle (follicular activation, dominance, ovulation, menstrual flow) ([2]; Case 6, patient, GRF-29 150 mcg/day i.v. day 1-7)","observation of the cycle (follicular activation, dominance, ovulation, menstrual flow) ([2]; Case 7, patient, GRF-29 150 mcg/day i.v. day 1-7)","overall effect on follicle growth and ovulation ([2]; administration during the first phase of the cycle, all cases)","seminal parameters (number of spermatozoa, motility) (spermatozoa)",Cross-reactivity [3]
"GRF: Somatotrophin releasing factor; measured as immunoreactivity by RIA, binding done with iodine labelled human GRF-44",2.5 fmoles of peptide/70 mcg of protein,about 40 fmoles/mg of protein,"produces an increase in serum levels of HGH and Sm-C but not of prolactin, LH or FSH",,,,,,,,
"GRF-29: biologically active fragment of Somatotrophin releasing factor; lyophilized ampoules of 100 or 150 mcg with 10 mg mannitol (YADAIFTNSYRKVLGQLSARKLLQDIMSR; ends and bridges not checked; UniProt P01286 32-60, looked up, fragment)",,,,"presence of follicular activation and evidence of a dominant follicle between the 13th and the 14th day of the cycle, with ovulation between the 15th and 16th day","presence of follicular activation, dominance and dehiscence",absence of ovulation but follicle-genesis was activated; also recorded: Menstrual flow occurred spontaneously on the 33rd day,"good ovarian activation was observed, followed by the growth of two follicles (within a micropolycistic ovary, as stated above), which presented an involution around the 17th day of the cycle","presence of echographic notes of ovarian activation, but absence of follicular dominance","facilitates follicle growth and anticipates, or even induces, ovulation (dehiscence)","improvement of the seminal parameters, and especially an increase in the number of spermatozoa and their motility",100%
